This note sets out measurements from PMC7307922 (Journal of Medicinal Chemistry, 2020).

Bounds are passed on as bounds.

The target of assay [1] is T1, hFFA3 (Homo sapiens, UniProt O14843).
T1 sequence (O14843 1-346): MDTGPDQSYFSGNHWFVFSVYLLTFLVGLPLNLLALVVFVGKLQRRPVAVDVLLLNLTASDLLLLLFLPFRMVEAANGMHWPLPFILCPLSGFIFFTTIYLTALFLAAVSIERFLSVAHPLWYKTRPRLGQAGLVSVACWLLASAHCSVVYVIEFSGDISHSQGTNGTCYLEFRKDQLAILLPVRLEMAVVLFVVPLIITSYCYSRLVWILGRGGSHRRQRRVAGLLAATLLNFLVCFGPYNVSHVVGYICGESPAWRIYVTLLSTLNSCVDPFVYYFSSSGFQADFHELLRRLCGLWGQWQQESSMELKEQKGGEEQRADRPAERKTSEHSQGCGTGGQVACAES
Briefly: cell-based. The following applies: for Emax: HEK293, read-out: cAMP Emax; for increased potency in cAMP assay versus GTPγS assay / lower potency in cAMP assay versus GTPγS assay: cAMP vs GTPγS data; for cAMP pEC50: hFFA3, compound alone, mean of ≥3 independent experiments ± standard error; for PAM pEC50: cAMP assay in the presence of 1 μM propionate. The protocol: (§1) The ligands were initially screened in a human FFA3-dependent [^35S]GTPγS binding assay as this assay reflects receptor-mediated activation of Gi/o proteins and is known to generally correlate well with ligand affinity.[30] Analogues of particular interest were tested further in a cAMP inhibition assay as this is an important downstream effect of Gi-activation. […] It is furthermore performed in whole cells, is more downstream, includes G protein signal amplification, and therefore better reflects a more natural ligand–receptor response.
HEK293 Flp-In T-Rex cells stably transfected with FFA3-eYFP receptors were incubated overnight with doxycycline to induce expression, then harvested, and cryopreserved. On the day of each experiment, cells were thawed and resuspended in stimulation buffer. Assays were carried out using a 384-well plate format with 3000 cells/well using the CisBio cAMP GS dynamic kit as per manufacturer’s protocol. Compounds were tested for the ability to inhibit 0.3 μM forskolin-induced cAMP production after co-incubation for 1 h. Reactions were measured using a PHERAstar FS plate reader (BMGLabtech, Aylesbury, UK).
On the technique in general: Changes in cAMP serve as a functional read-out for many G protein-coupled receptors.

Assay [2] concerns the target T1, hFFA3. Briefly: biochemical. The note with it: for GTPγS pEC50: hFFA3, mean of ≥3 independent experiments ± standard error; for Emax: read-out: GTPγS Emax. Here is the method:
as §1
Membranes were isolated from Flp-In T-REx HEK293 cells treated with 100 ng/mL doxycycline to induce receptor expression. Cells were washed with ice-cold phosphate-buffered saline and removed from dishes by scraping before being centrifuged for 5 min at 4 °C, 3000 rpm. Pellets were resuspended in TE buffer (75 mM Tris–HCl, 5 mM EDTA; pH 7.5) with the addition of a protease inhibitor mixture (Roche Applied Science, West Sussex, UK). This was then homogenized with a 5 mL hand-held homogenizer and subsequently centrifuged at 1500 rpm for 5 min at 4 °C, from which the supernatant was collected and further centrifuged at 50 000 rpm for 30 min at 4 °C. The resulting pellet was resuspended in TE buffer, and the protein content was measured using a BCA protein assay kit (Pierce, Fisher Scientific, Loughborough, UK).
Reactions were initiated with the addition of [^35S]GTPγS at 50 nCi per tube; reactions were terminated after 1 h of incubation at 25 °C by rapid filtration through GF/C glass filters using a 24-well Brandel cell harvester (Alpha Biotech, Glasgow, UK). Unbound radioligand was removed from filters by washing three times with ice-cold wash buffer (50 mM Tris–HCl, pH 7.4, and 10 mM MgCl2), and [^35S]GTPγS binding was determined by liquid scintillation spectrometry.

For orientation: Emax means the maximal effect, on the per cent scale that the assay sets. Consider `CC1=C(C(=O)Nc2ccccc2C)C(c2ccoc2)C2=C(CCCC2=O)N1` (stereo not shown) [Compound 2, reference compound], for which, at hFFA3 [1], the Emax is 97%, the “increased potency in cAMP assay versus GTPγS assay” value is given as 10 fold and the “cAMP pEC50” value is recorded as 6.27 ± 0.03. Besides, on hFFA3 [2], the “GTPγS pEC50” value is recorded as 5.24 ± 0.08 and the Emax was 135%.
The matching figures for `CC1=C(C(=O)Nc2ccccc2C)C(c2ccccc2)C2=C(CCCC2=O)N1` (stereo not shown) [Compound 3, 2-Methyl-5-oxo-4-phenyl-N-(o-tolyl)-1,4,5,6,7,8-hexahydroquinoline-3-carboxamide]: 98%, 14 fold, 5.91 ± 0.04, 4.75 ± 0.11 and 103%.
With `CC1=C(C(=O)Nc2ccccc2C)C(c2cccs2)C2=C(CCCC2=O)N1` (stereo not shown) [Compound 4, 2-Methyl-5-oxo-4-(thiophen-2-yl)-N-(o-tolyl)-1,4,5,6,7,8-hexahydroquinoline-3-carboxamide], on hFFA3 [1], the Emax was 102%, the “PAM pEC50” value is 5.92 ± 0.04 and the “cAMP pEC50” value was 5.79 ± 0.04. On hFFA3 [2], the “GTPγS pEC50” value stood at 5.52 ± 0.18 and the Emax was 111%.
As to `CC1=C(C(=O)Nc2ccccc2C)C(c2cccc(Br)c2)C2=C(CCCC2=O)N1` (stereo not shown) [Compound 6, 4-(3-Bromophenyl)-2-methyl-5-oxo-N-(o-tolyl)-1,4,5,6,7,8-hexahydroquinoline-3-carboxamide], on hFFA3 [1], the Emax was 99% and the “cAMP pEC50” value amounted to 5.87 ± 0.06. Further, on hFFA3 [2], the “GTPγS pEC50” value worked out at 5.49 ± 0.08 and the maximal effect (Emax) was 89%.
The like results for `CC1=C(C(=O)Nc2ccccc2C)C(c2ccc(Br)cc2)C2=C(CCCC2=O)N1` (stereo not shown) [Compound 7, 4-(4-Bromophenyl)-2-methyl-5-oxo-N-(o-tolyl)-1,4,5,6,7,8-hexahydroquinoline-3-carboxamide] were, in that order, 103%, 5.79 ± 0.03, 5.43 ± 0.09 and 85%.
As to `CC1=C(C(=O)Nc2ccccc2C)C(c2cccc(C(F)(F)F)c2)C2=C(CCCC2=O)N1` (stereo not shown) [Compound 8, 2-Methyl-5-oxo-N-(o-tolyl)-4-(3-(trifluoromethyl)phenyl)-1,4,5,6,7,8-hexahydroquinoline-3-carboxamide], on hFFA3 [1], the Emax is 98% and the “cAMP pEC50” value is listed as 5.55 ± 0.05. On hFFA3 [2], the “GTPγS pEC50” value was determined as 4.81 ± 0.13 and the Emax was 118%.
Regarding `CC1=C(C(=O)Nc2ccccc2C)C(c2ccc(C(F)(F)F)cc2)C2=C(CCCC2=O)N1` (stereo not shown) [Compound 9, 2-Methyl-5-oxo-N-(o-tolyl)-4-(4-(trifluoromethyl)phenyl)-1,4,5,6,7,8-hexahydroquinoline-3-carboxamide], at hFFA3 [1], the Emax is 101% and the “cAMP pEC50” value is 5.31 ± 0.06. At hFFA3 [2], the “GTPγS pEC50” value is 5.12 ± 0.13 and the Emax is 116%.
The like results for `CC1=C(C(=O)Nc2ccccc2C)C(c2ccc(C)cc2)C2=C(CCCC2=O)N1` (stereo not shown) [Compound 10, 2-Methyl-5-oxo-N-(o-tolyl)-4-(p-tolyl)-1,4,5,6,7,8-hexahydroquinoline-3-carboxamide] were, in that order, 97%, 5.44 ± 0.04, 4.52 ± 0.11 and 88%.
The like results for `CCc1ccc(C2C(C(=O)Nc3ccccc3C)=C(C)NC3=C2C(=O)CCC3)cc1` (stereo not shown) [Compound 11, 4-(4-Ethylphenyl)-2-methyl-5-oxo-N-(o-tolyl)-1,4,5,6,7,8-hexahydroquinoline-3-carboxamide] were, in that order, 96%, 5.17 ± 0.08, 4.08 ± 0.26 and 143%.
As to `CC1=C(C(=O)Nc2ccccc2)C(c2ccco2)C2=C(CCCC2=O)N1` (stereo not shown) [Compound 12], at hFFA3 [1], the Emax was 97% and the “cAMP pEC50” value amounted to 5.45 ± 0.03. On hFFA3 [2], the “GTPγS pEC50” value came out at 5.11 ± 0.12 and the Emax is 81%. Besides, on hFFA3 [2] (relative to 1), the “drop in potency on replacement of o-tolyl (1)” value is on record as above 3 fold.
Consider `CC1=C(C(=O)Nc2cccc(C)c2)C(c2ccco2)C2=C(CCCC2=O)N1` (stereo not shown) [Compound 13, 4-(Furan-2-yl)-2-methyl-5-oxo-N-(m-tolyl)-1,4,5,6,7,8-hexahydroquinoline-3-carboxamide], for which, on hFFA3 [1], the Emax was 100% and the “cAMP pEC50” value amounted to 5.80 ± 0.04. In addition, at hFFA3 [2], the “GTPγS pEC50” value turned out to be 5.34 ± 0.15 and the Emax is 78%.
Consider `CC1=C(C(=O)Nc2ccc(C)cc2)C(c2ccco2)C2=C(CCCC2=O)N1` (stereo not shown) [Compound 14, 4-(Furan-2-yl)-2-methyl-5-oxo-N-(p-tolyl)-1,4,5,6,7,8-hexahydroquinoline-3-carboxamide], for which, at hFFA3 [1], the Emax was 100% and the “cAMP pEC50” value came to 6.16 ± 0.03. In addition, at hFFA3 [2], the “GTPγS pEC50” value is recorded as 5.27 ± 0.12 and the Emax is 88%.
Take `COc1ccccc1NC(=O)C1=C(C)NC2=C(C(=O)CCC2)C1c1ccco1` (stereo not shown) [Compound 15, 4-(Furan-2-yl)-N-(2-methoxyphenyl)-2-methyl-5-oxo-1,4,5,6,7,8-hexahydroquinoline-3-carboxamide]: on hFFA3 [1], the Emax is 99%, the “increased potency in cAMP assay versus GTPγS assay” value amounted to 50 fold and the “cAMP pEC50” value came out at 6.43 ± 0.03. Further, at hFFA3 [2], the “GTPγS pEC50” value was 4.71 ± 0.28 and the Emax is 124%.
Regarding `CC1=C(C(=O)Nc2ccccc2C)C(CC(C)C)C2=C(CCCC2=O)N1` (stereo not shown) [Compound 17, 4-Isobutyl-2-methyl-5-oxo-N-(o-tolyl)-1,4,5,6,7,8-hexahydroquinoline-3-carboxamide], on hFFA3 [1], the Emax was 109%, the “PAM pEC50” value amounted to 6.28 ± 0.14, the “lower potency in cAMP assay versus GTPγS assay” value was 5 fold and the “cAMP pEC50” value was found to be 5.00 ± 0.06. Besides, on hFFA3 [2], the “GTPγS pEC50” value turned out to be 5.68 ± 0.13 and the Emax is 109%.
Take `CC1=C(C(=O)Nc2cccc(C)c2C)C(CC(C)C)C2=C(CCCC2=O)N1` (stereo not shown) [Compound 18, N-(2,3-Dimethylphenyl)-4-isobutyl-2-methyl-5-oxo-1,4,5,6,7,8-hexahydroquinoline-3-carboxamide]: on hFFA3 [1], the maximum response (Emax) was 97%, the “lower potency in cAMP assay versus GTPγS assay” value worked out at 2 fold and the “cAMP pEC50” value stood at 4.98 ± 0.11. Moreover, on hFFA3 [2], the “GTPγS pEC50” value was 5.26 ± 0.16 and the Emax is 88%.
By EC50 is commonly meant the concentration that produces a half-maximal response. A lower EC50 goes with an effect from little substance. On to `CC1=C(C(=O)Nc2ccccc2I)C(CC(C)C)C2=C(CCCC2=O)N1` (stereo not shown) [Compound 19, N-(2-Iodophenyl)-4-isobutyl-2-methyl-5-oxo-1,4,5,6,7,8-hexahydroquinoline-3-carboxamide], for which, at hFFA3 [1], the half-maximal effective concentration (EC50) was 2690 nM and the Emax is 89%. Also, on hFFA3 [2], the “GTPγS pEC50” value amounted to 5.41 ± 0.15 and the Emax was 129%.
In the case of `CCN(CC)CCOCC1C(C(=O)Nc2cc(Cl)ccc2Cl)=C(C)NC2=C1C(=O)CCC2` (stereo not shown) [Compound 54, N-(2,5-Dichlorophenyl)-4-((2-(diethylamino)ethoxy)methyl)-2-methyl-5-oxo-1,4,5,6,7,8-hexahydroquinoline-3-carboxamide], on hFFA3 [1], the “cAMP pEC50” value is given as “nr^d”.
The same measure, in the same setting: the same measure for `CC1=C(C(=O)Nc2cc(Cl)ccc2Cl)C(CNC(=O)OC(C)(C)C)C2=C(CCCC2=O)N1` (stereo not shown) [Compound 55, tert-Butyl((3-((2,5-dichlorophenyl)carbamoyl)-2-methyl-5-oxo-1,4,5,6,7,8-hexahydroquinolin-4-yl)methyl)carbamate]: “nr^d”.
Take `CC1=C(C(=O)Nc2cc(Cl)ccc2Cl)C(CC2CCN(C(=O)OC(C)(C)C)CC2)C2=C(CCCC2=O)N1` (stereo not shown) [Compound 56, tert-Butyl 4-((3-((2,5-dichlorophenyl)carbamoyl)-2-methyl-5-oxo-1,4,5,6,7,8-hexahydroquinolin-4-yl)methyl)piperidine-1-carboxylate]: the “allosteric effect on propionate response” value at hFFA3 [1] (cAMP assay together with propionate (56: 30 μM compound; 62, 63: 1 μM propionate)) is on record as “NAM”. The “cAMP pEC50” value on hFFA3 [1] is “nr^d”.
